Measured values as given in patent US8507471B2, “Biphenylcarboxamide derivatives as hedgehod pathway modulators” (IRM LLC, priority 2007, dated 2013).

Legend:
[1] = tested on: lymphoma cells expressing luciferase; test: Inhibiting Hh pathway abrogates lymphoma expansion in vivo (bioluminescence imaging); set-up: species or system syngeneic C57BL/6 mice; details: 50 mg/kg/day
Method: Stroma produced hedgehog ligands are important growth and survival factors for primary lymphoma cells under in-vitro culture conditions. Growth and expansion of lymphoma cells in-vivo is also dependent on Hh signalling. 1e6 lymphoma cells expressing luciferase were injected into syngeneic C57BL/6 mice. […] Luciferase levels were measured by bioluminescence imaging 3 times per week. […] Therefore we conclude that hedgehog pathway inhibition reduces lymphoma growth in mice.

[2] = tested on: basal cell carcinoma lesions (basaloid nests) in embryonic skin punches; test: Embryonic skin punch assay (Shh-induced basaloid nests); assay type: cell-based, Ptch+/−-LacZ mice; details: Mus musculus, completely blocks the basanoid formation, read-out: EC50 to block basanoid formation
Method: Compounds of the invention are tested from their ability to treat non-melanoma skin cancer, i.e. basal cell carcinoma lesions using the skin punch assay. Mouse embryos from Ptch^+/−-LacZ mice, are collected and killed at late gestation (embryonic day 17.5) and their skins excised. Circular punches (4 mm in diameter are placed in a collagen-coated Transwell (BIOCOAT cell Culture Insert, Becton Dickinson Labware, Bedford, Mass.) and cultured at the air-liquid interface, with the epidermis side facing up. The culture medium contains 5% FBS in DMEM/F12 (3:1) with added epidermal growth factor, insulin, and hydrocortisone. To induce formation of basaloid nests, punches are grown in the presence of 1-2 μg/ml Shh for 4 or more days. Effects of compounds of the invention are tested by adding at the time of Shh addition or after 6 days of Shh pretreatment. Compounds of the invention show full inhibition (preventing lesion formation) at concentrations of 1 μM or less.

Compound: Cc1c(C(=O)Nc2ccc(N3C[C@@H](C)O[C@@H](C)C3)nc2)cccc1-c1ccc(OC(F)(F)F)cc1 [Compound 153, N-(6-((2R,6S)-2,6-dimethylmorpholino)pyridin-3-yl)-2-methyl-4′-(trifluoromethoxy)biphenyl-3-carboxamide]
- lymphoma cell expansion (full efficacy) [1]: completely blocks lymphoma cell expansion
- EC50 [2]: < 200 nM
